Measured values published in ChEMBL document CHEMBL1201862, “PubChem BioAssay data set” (2004).
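48-hour exposure; five concentrations; linearly interpolated endpoints. GI50 is the concentration that inhibits growth by half.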 Active and inactive are the calls of the source. Rule as the data show it: active = GI50 up to about 1.1 µM and inactive = higher.

Columns and labels:
Experiment in all cases: NCI anticancer screen, dose series, 48 h
[1] = tested on: 786-0
[2] = tested on: ACHN
[3] = tested on: CCRF-CEM
[4] = tested on: COLO 205
[5] = tested on: HCT-116
[6] = tested on: HL-60
[7] = tested on: HOP-92
[8] = tested on: K562
[9] = tested on: KM12
[10] = tested on: Malme-3M
[11] = tested on: NCI-H460
[12] = tested on: RPMI-8226
[13] = tested on: SF-539
[14] = tested on: SK-MEL-5
[15] = tested on: SK-OV-3
[16] = tested on: SNB-19
[17] = tested on: TK-10
[18] = tested on: UO-31
[19] = tested on: OVCAR-3

Measured: GI50

O=C(CSc1nnc(-c2ccc(/N=C\c3ccc(Cl)cc3)cc2)o1)Nc1ccc(Cl)cc1Cl
inactive: [1] 19.5 µM | [2] 45.4 µM | [3] 29.3 µM | [4] 30.7 µM | [5] 22 µM | [6] 33.9 µM | [7] 22.3 µM | [8] 38 µM | [9] 28.6 µM | [10] 21.5 µM | [11] > 100 µM | [12] 32.4 µM | [13] 22.2 µM | [14] 33.3 µM | [15] 27.5 µM | [16] 31 µM | [17] > 100 µM | [18] 33 µM

COc1cc2c(cc1OC)C(Cc1cc(Br)c(OC)c(OC)c1)=[N+](C)CC2
inactive: [1] > 100 µM | [2] 90.4 µM | [3] 92.5 µM | [4] 40.6 µM | [5] > 100 µM | [6] 36 µM | [7] 28.2 µM | [8] 18.8 µM | [9] > 100 µM | [10] > 100 µM | [11] 58.1 µM | [19] 28.2 µM | [12] 43.2 µM | [13] > 100 µM | [14] 19.2 µM | [15] > 100 µM | [16] 55.6 µM | [17] 59.6 µM | [18] > 100 µM

CCOC(=O)c1nc2ccc(C(F)(F)F)cc2nc1NCc1ccc(OC)c(OC)c1
inactive: [1] > 100 µM | [2] 53.1 µM | [3] 65.6 µM | [4] 35.8 µM | [5] 39.2 µM | [6] 22.8 µM | [7] 29.7 µM | [8] 49.5 µM | [9] 55.5 µM | [10] 97.7 µM | [11] 35.6 µM | [19] 45.8 µM | [12] 86.1 µM | [13] > 100 µM | [14] 37.8 µM | [15] > 100 µM | [16] 94.2 µM | [17] > 100 µM | [18] 60.7 µM

C/C(=N\Nc1ccccc1)c1sc(-c2nc(C)c(/C(C)=N/Nc3ccccc3)s2)nc1C
inactive: [1] 18.8 µM | [2] 10.4 µM | [3] 28.3 µM | [4] 8.24 µM | [5] 33.7 µM | [6] 31.8 µM | [7] 10.4 µM | [8] 7.36 µM | [9] 24.7 µM | [10] 16.1 µM | [11] 42.2 µM | [19] 23.6 µM | [12] 12.6 µM | [13] 16.1 µM | [14] 16.7 µM | [15] 58.5 µM | [16] > 63.1 µM | [17] 80.9 µM | [18] 8.83 µM

CC(O)C(C(=O)O)N(CC1(O)OCC(O)C(O)C1O)N=O (centres undefined)
inactive: [1] > 100 µM | [2] > 100 µM | [3] > 100 µM | [4] > 100 µM | [5] > 100 µM | [6] > 100 µM | [7] > 100 µM | [8] > 100 µM | [9] > 100 µM | [10] > 100 µM | [11] > 100 µM | [19] > 100 µM | [12] > 100 µM | [13] > 100 µM | [15] > 100 µM | [17] > 100 µM | [18] > 100 µM

CCCCCCCCCCCCCCCC(=O)OCC1OC(n2cc(F)c(=O)[nH]c2=O)C(N)C(O)C1O (centres undefined)
inactive: [1] 19.1 µM | [2] 18.8 µM | [3] 16 µM | [4] 18.5 µM | [5] 20 µM | [6] 19.5 µM | [7] 20.1 µM | [8] 16.5 µM | [9] 18.6 µM | [10] 19.4 µM | [19] 2.19 µM | [12] 23.3 µM | [13] 19.4 µM | [14] 18.1 µM | [15] 22.4 µM | [16] 22.2 µM | [17] 21.9 µM | [18] 15.6 µM

COc1cc(-c2nccc3cc(OC)c(OC)cc23)ccc1O
inactive: [1] 78 µM | [2] 44.9 µM | [3] 38.5 µM | [4] 40.5 µM | [5] 49 µM | [6] 17.7 µM | [7] 23.9 µM | [8] 40.8 µM | [9] 48.3 µM | [10] > 100 µM | [11] 27.8 µM | [19] 49.3 µM | [12] 21.4 µM | [13] 35.4 µM | [14] 32.6 µM | [15] 68.2 µM | [16] 68.1 µM | [17] 42 µM | [18] > 100 µM

Brc1ccccc1C1SCc2nc3ccccc3n21 (centres undefined)
inactive: [1] 14 µM | [2] 16.4 µM | [3] 21 µM | [4] 16.7 µM | [5] 8.07 µM | [6] 6.71 µM | [7] 10.8 µM | [8] 7.01 µM | [9] 15.9 µM | [10] 18.8 µM | [11] 17.4 µM | [19] 13.5 µM | [12] 13.7 µM | [13] 17.4 µM | [14] 6.34 µM | [15] 20.7 µM | [17] 20 µM | [18] 10.4 µM

Cn1c(=O)c(/N=N/c2c(=O)n(C)c(=O)n3c2[nH]c2ccccc23)c2[nH]c3ccccc3n2c1=O
inactive: [1] 41.9 µM | [2] 80.9 µM | [3] 8.63 µM | [4] > 100 µM | [5] 6.95 µM | [6] > 100 µM | [7] 94.2 µM | [8] > 100 µM | [9] > 100 µM | [10] > 100 µM | [11] 9.89 µM | [19] > 100 µM | [12] > 100 µM | [13] 57.4 µM | [14] > 100 µM | [15] > 100 µM | [16] 13.2 µM | [17] 50.8 µM | [18] 87.3 µM

O=C(NNC(=O)/C(=C/c1cccc([N+](=O)[O-])c1)NC(=O)c1ccccc1)Nc1ccc(Cl)cc1
inactive: [1] 14 µM | [2] 14 µM | [3] 6.58 µM | [4] 13.4 µM | [5] 13.4 µM | [6] 6.5 µM | [7] 21 µM | [8] 5.66 µM | [9] 11.4 µM | [10] 14.2 µM | [11] 14.6 µM | [19] 11.6 µM | [12] 9.55 µM | [13] 16.7 µM | [14] 13.1 µM | [15] 15.8 µM | [16] 12.7 µM | [17] 15.5 µM | [18] 13.5 µM

Cc1ccc(S(=O)(=O)NC(=O)NCCc2ccccc2)cc1
inactive: [1] > 100 µM | [2] > 100 µM | [3] > 100 µM | [4] > 100 µM | [5] > 100 µM | [6] 74.1 µM | [7] > 100 µM | [8] 83.4 µM | [9] > 100 µM | [10] > 100 µM | [11] > 100 µM | [19] > 100 µM | [12] > 100 µM | [13] > 100 µM | [14] > 100 µM | [15] > 100 µM | [16] > 100 µM | [17] > 100 µM | [18] 51.8 µM
